This is an account of results in patent US20260144776A1, “COMBINATION THERAPY FOR A DOPAMINE AGONIST” (priority 2017, published 2026).

For one series, the system named is humans. To be noted: in vivo. As for the experimental part:
The study was single center, single-blind study.
Once a subject had reached his/her first intolerable dose (FID-1), upward dose escalation was discontinued.
All other provisions of the protocol remained unchanged. Assessments were the same as those planned for the dose escalation day.
On each study day, subjects were followed up for up to 8 hours following drug administration for AEs, vital signs, ECGs. In addition, a laboratory panel was taken at screening and at the end of the study.

The test system of series [1] is depressive symptoms in patients with PD. The conditions noted are these: 12 weeks, 296 PD patients, pramipexole 0.125 to 1.0 mg/kg; placebo 4.0 (SE 0.5), p=0.01; cited from earlier work.
Series [2] deals with patients with a DSM-III-R diagnosis of major depression. The conditions noted are these: pramipexole 5.0 mg group, cited from earlier work.
For series [3], the system named is animal behavior simulating symptoms of depression. The conditions noted are these: high doses of pramipexole; cited from earlier work.

For the molecule `CCCN[C@H]1CCc2nc(N)sc2C1` [Pramipexole, (S)-6-propylamino-4,5,6,7-tetrahydro-1,3-benzothiazole-2-amine], the dose limiting toxicity result in the series with humans is recorded as “gastro-intestinal adverse events”. In addition, the “BDI scores decreased by an adjusted” value in series [1] was 5.9 (SE 0.5). The “patients who discontinued treatment prematurely” value in series [2] (mainly because of adverse events) is recorded as 57.6%. In addition, the “improvement at week 8 (change from baseline)” value in series [2] (best improvement, no p value against placebo because of drop-out rate) is −15.00. For the same molecule, in series [2], the “patients who reported nausea” value was 76% and the “patients who reported vomiting” value was 39%. In addition, the “activity in tests of animal behavior simulating symptoms of depression” value in series [3] is reported as “active”.
